Assay results taken from patent publication US11020494B2, “Animal models for nonalcoholic fatty liver disease” (CROWN BIOSCIENCE INC. (TAICANG), priority 2017, dated 2021).

Legend:
FATZO mice [1] = conditions: for serum glucose concentrations in the fed state: after 8 weeks, vehicle 315.6±35.4; for serum glucose concentrations in the fed state / body weight change over the 8-week observation period: rosiglitazone 10 mg/kg/day, metformin 150 mg/kg/day; for body weight change over the 8-week observation period: oral once daily 8 weeks, vehicle 1.8±0.2
Procedure: Male FATZO mice (9 weeks of age, n=40) were maintained on Purina 5008 regular rodent chow and reverse osmosis water ad libitum. Mice were housed 3 per cage and acclimated to study environment for 7 days prior to study. At 10 weeks of age, mice were fasted for 6 hours, body weight was recorded and an OGTT performed. Glucose and insulin were assayed at 0, 30, 60, 90, 120 and 180 minutes following a 2 g/kg glucose load. Glucose concentrations were obtained from StatStrip glucometer and insulin was assayed at each time-point using the insulin kit mentioned above. Insulin sensitivity index (ISI) was calculated using a formula modified from Matsuda and DeFronzo [39] by changing the numerator to 10,000 and using glucose and insulin AUCs instead of average glucose and insulin levels ([…]/square root of [fasting glucose x fasting insulin]×[glucose AUC×insulin AUC during OGTT]).
Animals were randomized into 3 groups of 10 based on baseline ISI and body weight. […] Compounds were administered orally once daily by gavage for 8 weeks. Body weight was recorded weekly.
Following 8 weeks of treatment, OGTT was repeated one hour after compound administration. Whole blood was taken from tail clip and processed to serum. Treatment effects on glucose disposal, fed serum glucose, HbAlc, and ISI were compared to vehicle.

FATZO mice [2] = experiment: Effect of leptin on food intake in FATZO mice; type: in vivo, mouse; conditions: leptin 10 mg/kg, first 4 hours of darkness
Procedure: Two age groups of male FATZO mice were selected for leptin levels and the effect of leptin on food intake. Additional age matched groups of C57BL/6 were bled for leptin levels. Animals were acclimated to reverse light cycle for 7 days before being put on protocol. […] Serum was prepared from tail blood and leptin levels were analyzed (Meso Scale Discovery, K152BYC, Rockville, Md., USA). After blood collection, animals were given saline or leptin injections (10 mg/kg) and food intake data was recorded for the first 4 hours of darkness.

[3] = after 8 weeks of administration, compared to vehicle

Compound	AUC for glucose during OGTT (FATZO mice [1]; [3])	calculated insulin sensitivity index (ISI) (FATZO mice [1]; [3])	insulin AUC during OGTT (FATZO mice [1]; [3])	serum glucose concentrations in the fed state (FATZO mice [1]) [mg/dL]	body weight change over the 8-week observation period (FATZO mice [1]) [g]	food intake after leptin injection (FATZO mice [2]; FATZO at 10 weeks of age)	food consumption after leptin injection (FATZO mice [2]; young FATZO animals (5 weeks))
CN(C)C(=N)N=C(N)N [metformin]	significant reductions	significant improvements	significant improvements	250.0 ± 12.8	-0.2 ± 0.6	–	–
CN(CCOc1ccc(CC2SC(=O)NC2=O)cc1)c1ccccn1 (stereo not drawn) [rosiglitazone]	–	–	–	233.3 ± 7.7	5.3 ± 0.7	–	–
leptin	–	–	–	–	–	no significant reduction	significantly reduced
